# Results from patent US20030118525A1, “Treatment of uv induced immunosuppression” (priority 2000, published 2003).
# Legend:
# [1] = tested on: mice irradiated with simulated solar UV radiation (SSUV); assay: Contact hypersensitivity to oxazolone after SSUV irradiation (ear swelling); type: in vivo; conditions: 0.1% cream; in words
# Method: (§1) 1.1 Solar simulated radiation (SSUV) was produced from a filtered fluorescent tube source, and was administered at the rate of 1 MED daily for 3Days.
# 1.3 Contact hypersensitivity was induced by application of 100 μl 0.2% w/v oxazolone in ethanol, to the abdominal skin of groups of 6 mice. The mice were challenged by application of 5 μl of fresh oxazolone/ethanol to each surface of both pinnae one week later, and the ear swelling response was measured 24 h later.
# (§2) Carnosine incorporated into cosmetic creams at 0.1% and 1.00%, was compared with a cream containing 0.1% acetylcarnosine and a control cream containing neither carnosine nor acylcarnosine. The creams were applied daily (100 μl per mouse) immediately following irradiation with 1 MED of simulated solar UV radiation on 3 consecutive days only.
# [2] = tested on: collagen in mouse fibroblasts; assay: Collagen cross-linking by UV (solar) irradiation in mouse fibroblasts in vitro; type: cell-based; conditions: 1-2 μM
# Description: (§3) 1.4 Collagen cross-linking by UV (solar) irradiation was achieved as described in WO 90/06102.
# [3] = tested on: mice irradiated with simulated solar UV radiation (SSUV); assay: Erythema/oedema as mid-dorsal skinfold thickness after simulated solar UV radiation; type: in vivo
# Method: as §1
# 1.2 Erythema was measured as a mid-dorsal skinfold thickness, which comprises mostly the oedema component of erythema.
# as §2
# The sunburn (erythema) response was measured in mice by the oedema component at the peak of the erythema (48 h after the first UV exposure).
# collagen in mouse skin = assay: Collagen cross-linking by UV (solar) irradiation in mouse skin; conditions: 1-2 μM
# Description: as §3
# [4] = tested on: collagen in human fibroblasts; assay: Collagen cross-linking by UV (solar) irradiation in human fibroblasts in vitro; type: cell-based; conditions: 1-2 μM
# Description: as §3
compound,measurement,setting,value
"CC(=O)NCCC(=O)N[C@@H](Cc1cnc[nH]1)C(=O)O [acetylcarnosine, N-acetylcarnosine]",protection against suppression of contact hypersensitivity resulting from UV irradiation,[1],totally prevented
same,inhibition of cross linking of collagen by UV (solar) irradiation,[2],completely inhibited
same,% increase in skinfold thickness,"[3]; 0.1% cream, 100 μl per mouse daily immediately after 1 MED SSUV on 3 days, measured at 48 h, base + SSUV 30.2",11.3%
same,"sunburn (erythema) response, oedema component at peak of erythema","[3]; creams applied after SSUV, 48 h after the first UV exposure, in words",significant reduction
same,inhibition of cross linking of collagen by UV (solar) irradiation,collagen in mouse skin,completely inhibited
same,inhibition of cross linking of collagen by UV (solar) irradiation,[4],completely inhibited
